Residues, ends and D or L forms follow the SMILES beside them. *: point of attachment. Cbz = O=C(OCc1ccccc1)*; CH2F = FC*
Key:
[1] = system: 2LMP human breast cancer xenografts; assay: TRA-8 therapy alone or with chemotherapy or radiation in mice bearing breast cancer xenografts; type: in vivo, Athymic nude mice; conditions: Figure 25 experiment; 200 µg TRA-8 i.p., adriamycin 6 mg/kg i.v.
Method: Athymic nude mice were injected s.c. with 3 x 10^7 2LMP cells. […] The growth of tumors was monitored over time. […] Tumor size and regression rates were determined.
Data from 6 independent experiments were analyzed by individual experiment. Treatment combinations were compared with respect to in vivo anti-tumor efficacy, i.e., inhibition of tumor growth, which was measured as three endpoints; extension of tumor doubling times, percentage of tumor regressions, and growth rates over time. The actual number of days at which the tumor doubled in surface area (product of two diameters) relative to baseline on day 7 after tumor cell injection was used in the doubling time analysis. The nonparametric Kruskal-Wallis test was used for median tumor doubling time comparisons between treatments. Fisher's exact test was used to compare the proportions of tumor regressions and relapse-free regressions across treatment groups. […]
A total of 166 animals, 10 treatment groups, and 6 independent experiments were included in the aggregate analysis. […] The median tumor doubling times were analyzed using the Kruskal-Wallis test and Fisher's exact test was used to compare the proportions of tumor regressions and relapse-free regressions across treatment groups.

2LMP xenografts = assay: Analysis of apoptosis in xenografts, TUNEL; type: in vivo, Athymic nude mice; conditions: for stained cells: day 14, 100 µg TRA-8 days 7 and 10, adriamycin 3 mg/kg or paclitaxel 10 mg/kg days 8 and 11, untreated 4%; for intense stained cells: day 14, same doses, untreated 1%
Method: One group of mice was untreated. The xenografts were dissected for the study of apoptosis on day 14 after tumor cell injection. The reason for the substantial reduction in treatment intensity compared to our standard treatment protocol was to allow adequate tumor tissue for analysis on day 14. Tunel assay for apoptosis in tumor xenografts was performed as follows. Five-micron paraffin sections of tissue were mounted on Superfrost/Plus slides and heated at 58°C for 1 h. Tissue sections were deparaffinized in three changes of xylene and rehydrated with one change of absolute ethanol, 95% ethanol, and 70% ethanol, each in 5-min increments. Then, the sections were placed in Tris-buffered saline (0.5M Tris base, 0.15 M NaCl, 0.0002% Triton X-100, pH 7.6). Apoptotic nuclei were detected using an Apop Tag Peroxidase kit (Intergen, Purchase, NY). Proteinase K (20 µg/ml in distilled deionized H2O) was added to the tissue specimens and incubated at room temperature for 15 min. Endogenous peroxidases were quenched with an aqueous solution of 3% hydrogen peroxide for 5 min. Sections were treated with an equilibration buffer for 30 min and then incubated with the TdT/enzyme (diluted in labeling reaction mix) for 1 h at 37°C using parafilm covers. During this incubation, the TdT enzyme binds the 3'-OH ends of DNA fragments and catalyzes the addition of digoxigenin-labeled and unlabeled deoxynucleotides. Negative controls were incubated with distilled H2O (diluted in labeling reaction mix) instead of the TdT enzyme. A stop buffer was added for 10 min at room temperature to terminate the labeling reaction. An anti-digoxigenin conjugate was added to each slide for 30 min. The chromagen 3,3' DAB was used to visualize the labeled 3' OH end of DNA fragments. The slides were then rinsed in deionized water and lightly counterstained with hematoxylin, dehydrated using graded alcohols and xylene and coverlsipped using Permount. Approximately 10 random fields were evaluated for percentage of Tunel stained and percentage of intensely stained apoptotic bodies throughout the tissue.

PC-3 cells = assay: Combination study of TRA-8 with Paclitaxel, XTT viability; type: cell-based; conditions: Homo sapiens, PC-3, read-out: cell viability
Method: Human prostate cancer cell line PC-3 is obtained from American Tissue Culture Collection (ATCC) and maintained in F-12K Nutrient Mixture (21127-022, Gibco BRL) containing 10% fetal bovine serum (FBS, Hyclone), 1% L-Glutamine-200 mM (25030-149, Gibco BRL) and 0.5% Penicillin Streptomycin Solution (P-7539, Sigma). RPMI1640 medium (MED-008, IWAKI) supplemented with 10% FBS and 0.5% Penicillin Streptomycin Solution is used in the following experiment. Exponentially growing PC-3 cells are collected by trypsinization and washed twice with fresh medium. The cells are then counted, resuspended in fresh medium at a density of 5 x 10^4 cells/ml and distributed in triplicate into flat-bottomed 96 well plates (3598, Corning-Coster) in a total volume of 100 µl/well one day before the start of the experiment. A representative anti-cancer drug, Paclitaxel (169-18611, Wako) dissolved in dimethylsulfoxide (10 mg/ml) is diluted in fresh medium and then added to the 96-well plates containing the cells at 50 µl/well. The final concentrations of dimethylsulfoxide are less than 0.1%. […] After incubation for a further 24 hr, 50 µl of Minimum Essential Medium (11095-098, Gibco BRL) containing 1 mg/ml of XTT and […] of PMS is added to the wells and the plates are incubated for 6 hr. OD450 is then measured by SPECTRA MAX 250 (Molecular Devices) and the cell viability is calculated as follows.

Jurkat cells = assay: Caspase inhibition assay, Jurkat cells with TRA-8; type: cell-based, human; conditions: 50 ng/ml TRA-8 overnight
Method: Cell viability was determined by ATPLite, MTT, and PI exclusion assays after overnight culture. […] Cell viability was determined by ATPLite. […] Cell viability was determined by ATPLite. The results are presented as mean±SEM of triplicate cultures of two experiments. d. […] Cell viability was determined by ATPLite assay. […] Cell viability of hepatocytes was determined by the ATPLite assay. […] Cell viability was determined by the ATPLite assay.

## COc1cccc2c1C(=O)c1c(O)c3c(c(O)c1C2=O)C[C@@](O)(C(=O)CO)C[C@@H]3O[C@H]1C[C@H](N)[C@H](O)[C@H](C)O1 [Adriamycin, doxorubicin]
[1]
  inhibition of tumor growth compared to untreated controls: did not differ from controls
2LMP xenografts
  stained cells: 8%
  intense stained cells: 6%

## CC(=O)O[C@H]1C(=O)[C@@]2(C)[C@H]([C@H](OC(=O)c3ccccc3)[C@]3(O)C[C@H](OC(=O)[C@H](O)[C@@H](NC(=O)c4ccccc4)c4ccccc4)C(C)=C1C3(C)C)[C@]1(OC(C)=O)CO[C@@H]1C[C@@H]2O [Paclitaxel]
PC-3 cells
  viability at 0.2 µM: > 40%
2LMP xenografts
  stained cells: 7%
  intense stained cells: 2%

## CC(NC(=O)C(NC(=O)OCc1ccccc1)C(C)C)C(=O)NC(CC(=O)O)C(=O)CF (stereo not drawn) [Z-VAD] (Cbz-Val-Ala-Asp-CH2F; configuration not given here)
Jurkat cells
  inhibition of TRA-8-mediated cell death: completely inhibited
